In ChEMBL document CHEMBL1201862, “PubChem BioAssay data set” (2004):
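Dose response: 5 concentrations. Exposure: 48 h. Format: 96-well plates. Endpoint: linear interpolation; highest concentration if not reached. GI50 marks 50% less growth.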 The source made the active and inactive calls. Rule as the data show it: active = GI50 up to about 1.1 µM and inactive = higher.

Experiments:
Assay in all cases: growth of human tumour cells (NCI), 48 h
M14 = system: M14
UACC-257 = system: UACC-257
SR = system: SR
UO-31 = system: UO-31
HT-29 = system: HT-29
OVCAR-5 = system: OVCAR-5
MDA-MB-231 = system: MDA-MB-231
EKVX = system: EKVX
COLO 205 = system: COLO 205
CCRF-CEM = system: CCRF-CEM
UACC-62 = system: UACC-62
786-0 = system: 786-0
Malme-3M = system: Malme-3M
HL-60 = system: HL-60
LOX IMVI = system: LOX IMVI
K562 = system: K562
MDA-MB-435 = system: MDA-MB-435
IGROV-1 = system: IGROV-1
HCT-15 = system: HCT-15
NCI-H522 = system: NCI-H522
Hs-578T = system: Hs-578T
KM12 = system: KM12
SF-295 = system: SF-295
NCI-H23 = system: NCI-H23
SNB-75 = system: SNB-75
OVCAR-3 = system: OVCAR-3
TK-10 = system: TK-10
MCF7 = system: MCF7
HOP-92 = system: HOP-92
NCI/ADR-RES = system: NCI/ADR-RES
PC-3 = system: PC-3
SF-539 = system: SF-539
HCT-116 = system: HCT-116
DU-145 = system: DU-145
A549 = system: A549
SK-OV-3 = system: SK-OV-3
T47D = system: T47D
SK-MEL-28 = system: SK-MEL-28
MOLT-4 = system: MOLT-4
NCI-H460 = system: NCI-H460
BT-549 = system: BT-549
SF-268 = system: SF-268
OVCAR-8 = system: OVCAR-8
ACHN = system: ACHN
CAKI-1 = system: CAKI-1
A498 = system: A498
SN12C = system: SN12C
SNB-19 = system: SNB-19
SK-MEL-5 = system: SK-MEL-5
HOP-62 = system: HOP-62
MDA-N = system: MDA-N
RPMI-8226 = system: RPMI-8226
NCI-H226 = system: NCI-H226
HCC 2998 = system: HCC 2998
SW-620 = system: SW-620
RXF 393 = system: RXF 393
SK-MEL-2 = system: SK-MEL-2
U-251 = system: U-251
OVCAR-4 = system: OVCAR-4

Measured: GI50

CCOC(=O)c1nc2ccc(C(F)(F)F)cc2nc1Nc1ccc(OC)c(OC)c1
> 100 µM: HCT-15
inactive: M14 > 100 µM | UACC-257 > 100 µM | SR 17.8 µM | UO-31 > 100 µM | HT-29 > 100 µM | OVCAR-5 > 100 µM | MDA-MB-231 48.9 µM | EKVX > 100 µM | COLO 205 > 100 µM | CCRF-CEM > 100 µM | UACC-62 > 100 µM | 786-0 26.5 µM | Malme-3M > 100 µM | HL-60 > 100 µM | LOX IMVI > 100 µM | K562 > 100 µM | MDA-MB-435 > 100 µM | IGROV-1 > 100 µM | NCI-H522 > 100 µM | Hs-578T > 100 µM | KM12 > 100 µM | SF-295 > 100 µM | NCI-H23 > 100 µM | SNB-75 21.6 µM | OVCAR-3 > 100 µM | TK-10 41.8 µM | MCF7 > 100 µM | HOP-92 65.2 µM | NCI/ADR-RES > 100 µM | PC-3 > 100 µM | SF-539 98.6 µM | HCT-116 94.4 µM | DU-145 > 100 µM | A549 > 100 µM | SK-OV-3 60 µM | T47D > 100 µM | SK-MEL-28 > 100 µM | MOLT-4 > 100 µM | NCI-H460 > 100 µM | BT-549 97.9 µM | SF-268 78.2 µM | OVCAR-8 > 100 µM | ACHN 44.1 µM | CAKI-1 24.5 µM | A498 > 100 µM | SN12C > 100 µM | SNB-19 31.7 µM | SK-MEL-5 > 100 µM | HOP-62 12 µM | MDA-N > 100 µM | RPMI-8226 > 100 µM | NCI-H226 > 100 µM | HCC 2998 > 100 µM | SW-620 > 100 µM | RXF 393 > 100 µM

CC(CCN)(CCN)[N+](=O)[O-]
inactive: M14 > 100 µM | UACC-257 > 100 µM | SR > 100 µM | UO-31 > 100 µM | HT-29 > 100 µM | OVCAR-5 > 100 µM | MDA-MB-231 > 100 µM | EKVX > 100 µM | COLO 205 > 100 µM | CCRF-CEM > 100 µM | UACC-62 > 100 µM | 786-0 > 100 µM | Malme-3M > 100 µM | HL-60 > 100 µM | LOX IMVI > 100 µM | K562 > 100 µM | MDA-MB-435 > 100 µM | IGROV-1 > 100 µM | NCI-H522 > 100 µM | Hs-578T > 100 µM | KM12 > 100 µM | SF-295 > 100 µM | NCI-H23 > 100 µM | SNB-75 > 100 µM | OVCAR-3 > 100 µM | TK-10 > 100 µM | MCF7 > 100 µM | HOP-92 > 100 µM | NCI/ADR-RES > 100 µM | PC-3 > 100 µM | SK-MEL-2 > 100 µM | SF-539 > 100 µM | HCT-116 > 100 µM | DU-145 > 100 µM | A549 > 100 µM | SK-OV-3 > 100 µM | T47D > 100 µM | SK-MEL-28 > 100 µM | MOLT-4 > 100 µM | NCI-H460 > 100 µM | BT-549 > 100 µM | U-251 > 100 µM | SF-268 > 100 µM | OVCAR-8 > 100 µM | ACHN > 100 µM | CAKI-1 > 100 µM | A498 > 100 µM | OVCAR-4 > 100 µM | SN12C 77.3 µM | SNB-19 > 100 µM | SK-MEL-5 > 100 µM | HOP-62 > 100 µM | MDA-N > 100 µM | RPMI-8226 > 100 µM | NCI-H226 > 100 µM | SW-620 > 100 µM | RXF 393 > 100 µM
> 100 µM: HCT-15
